This test deals with L1210 leukemia ip in BDF1 mice, survival T/C. The experiment in a line: NCI In Vivo Anticancer Drug Screen. Data for tumor model L1210 Leukemia (intraperitoneal) in B6D2F1 (BDF1) mice. To be noted: higher = longer survival. An outline of the steps: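 Read-out is survival time, reported as the treated-group measurement over the vehicle-control measurement.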
The mark [1] stands for this setting: endpoint: mean survival time, dose: 12.5 mg/kg/injection, schedule: Q04DX003 (ip), vehicle: Klucel (hydroxypropylcellulose) (HPC).
Where [2] appears, read: endpoint: mean survival time, dose: 25.0 mg/kg/injection, schedule: Q04DX003 (ip), vehicle: Klucel (hydroxypropylcellulose) (HPC).
The mark [3] stands for this setting: endpoint: mean survival time, dose: 50.0 mg/kg/injection, schedule: Q04DX003 (ip), vehicle: Klucel (hydroxypropylcellulose) (HPC).
[4] abbreviates: endpoint: mean survival time, dose: 100.0 mg/kg/injection, schedule: Q04DX003 (ip), vehicle: saline with Tween-80.
Where [5] appears, read: endpoint: mean survival time, dose: 200.0 mg/kg/injection, schedule: Q04DX003 (ip), vehicle: saline with Tween-80.
Where [6] appears, read: endpoint: mean survival time, dose: 400.0 mg/kg/injection, schedule: Q04DX003 (ip), vehicle: saline with Tween-80.
[7] abbreviates: endpoint: mean survival time, dose: 100.0 mg/kg/injection, schedule: Q04DX003 (ip), vehicle: saline.
The mark [8] stands for this setting: endpoint: mean survival time, dose: 200.0 mg/kg/injection, schedule: Q04DX003 (ip), vehicle: saline.
The mark [9] stands for this setting: endpoint: mean survival time, dose: 400.0 mg/kg/injection, schedule: Q04DX003 (ip), vehicle: saline.
Where [10] appears, read: endpoint: mean survival time, dose: 100.0 mg/kg/injection, schedule: Q01DX001 (ip), vehicle: saline.
Setting [11] is: endpoint: mean survival time, dose: 200.0 mg/kg/injection, schedule: Q01DX001 (ip), vehicle: saline.
Where [12] appears, read: endpoint: mean survival time, dose: 400.0 mg/kg/injection, schedule: Q01DX001 (ip), vehicle: saline.
The mark [13] stands for this setting: endpoint: mean survival time, dose: 200.0 mg/kg/injection, schedule: Q04DX002 (ip), vehicle: saline with Tween-80.
The mark [14] stands for this setting: endpoint: mean survival time, dose: 100.0 mg/kg/injection, schedule: Q01DX009 (ip), vehicle: saline with Tween-80.
[15] abbreviates: endpoint: mean survival time, dose: 25.0 mg/kg/injection, schedule: Q01DX009 (ip), vehicle: Klucel (hydroxypropylcellulose) (HPC).
Setting [16] is: endpoint: mean survival time, dose: 50.0 mg/kg/injection, schedule: Q01DX009 (ip), vehicle: Klucel (hydroxypropylcellulose) (HPC).
The mark [17] stands for this setting: endpoint: mean survival time, dose: 100.0 mg/kg/injection, schedule: Q04DX003 (ip), vehicle: Klucel (hydroxypropylcellulose) (HPC).
The mark [18] stands for this setting: endpoint: mean survival time, dose: 100.0 mg/kg/injection, schedule: Q04DX002 (ip), vehicle: saline with Tween-80.
Setting [19] is: endpoint: mean survival time, dose: 400.0 mg/kg/injection, schedule: Q04DX002 (ip), vehicle: saline with Tween-80.

Values joined by “and” are separate entries in the source; they are usually repeats but may differ in a detail not shown here. Equal values may be shown once. Toxic doses and inconclusive results are not listed.

Consider `CCCCCCCC1CCC(N)CC1` (stereo unspecified), for which the T/C is 105 % of control under setting [1], 91 % of control under setting [2] and 100 % of control under setting [3].
As to `CCOC(=O)CCC(C(=O)OCC)N(CC(=O)OCC)C(=O)c1ccccc1` (stereo unspecified), the T/C is 102 % of control under setting [4], 98 % of control under setting [5] and 96 % of control under setting [6].
For the compound `N#Cc1nc2c(nc1C#N)-c1ccccc1/C2=C1/C(=O)Cc2ccccc21`, the T/C (endpoint: mean survival time, dose: 25.0 mg/kg/injection, schedule: Q04DX002 (ip), vehicle: other) is 93 % of control and 90 % of control.
Take `CCOC(=O)N(C)C1CCC1NC` (stereo unspecified): the T/C runs as follows: under setting [7], 98 % of control; under setting [8], 112 % of control; under setting [9], 104 % of control.
`CN(C)N=Nc1cccc(C(N)=O)c1`: the T/C (endpoint: mean survival time, dose: 5.0 mg/kg/injection, schedule: Q01DX009 (ip), vehicle: Klucel (hydroxypropylcellulose) (HPC)) was 104 % of control; the T/C (endpoint: mean survival time, dose: 10.0 mg/kg/injection, schedule: Q01DX009 (ip), vehicle: Klucel (hydroxypropylcellulose) (HPC)) was 115 % of control; the T/C (endpoint: mean survival time, dose: 20.0 mg/kg/injection, schedule: Q01DX009 (ip), vehicle: Klucel (hydroxypropylcellulose) (HPC)) was 121 % of control; the T/C (endpoint: median survival time, dose: 39.0 mg/kg/injection, schedule: Q01DX009 (ip), vehicle: steriod suspending solution) is 150 % of control; the T/C (endpoint: median survival time, dose: 65.0 mg/kg/injection, schedule: Q01DX001 (ip), vehicle: steriod suspending solution) is 105 % of control; the T/C (endpoint: median survival time, dose: 65.0 mg/kg/injection, schedule: Q01DX009 (ip), vehicle: steriod suspending solution) was 95 % of control. Also, the T/C by setting is: (endpoint: median survival time, dose: 108.0 mg/kg/injection, schedule: Q01DX001 (ip), vehicle: steriod suspending solution) 120 % of control; (endpoint: median survival time, dose: 180.0 mg/kg/injection, schedule: Q04DX003 (ip), vehicle: steriod suspending solution) 105 % of control.
As to `Cc1cccc(Nc2nc(N)nc(N)c2N)c1`, the T/C reads like this: (endpoint: mean survival time, dose: 25.0 mg/kg/injection, schedule: Q01DX Z (ip), vehicle: saline) 101 % of control; (endpoint: mean survival time, dose: 50.0 mg/kg/injection, schedule: Q01DX Z (ip), vehicle: saline) 91 % of control.
Regarding `C[S+](C)c1ccccc1C(C)(C)CC(=O)O`, the T/C is 103 % of control under setting [10], 98 % of control under setting [11] and 110 % of control under setting [12].
`CC(C)(F)C(Br)C(=O)O` (stereo unspecified): the T/C under setting [13] was 93 % of control.
On to `COc1cc(/C=N/NC(=O)CNC(=O)NCc2ccccc2)ccc1O`, for which the T/C reads like this: (endpoint: mean survival time, dose: 50.0 mg/kg/injection, schedule: Q01DX009 (ip), vehicle: saline with Tween-80) 92 % of control; under setting [14], 95 % of control.
As to `Cn1c2nc(=O)[nH]c(=O)c-2cc2ccccc21`, the T/C under setting [10] is 100 % of control, the T/C under setting [11] was 94 % of control and the T/C under setting [12] was 97 % of control.
For the compound `CC(=O)Nc1ccc(I)cc1C(=O)O`, the T/C is, setting by setting: (endpoint: mean survival time, dose: 50.0 mg/kg/injection, schedule: Q01DX001 (ip), vehicle: carboxymethylcellulose (CMC)) 96 % of control; (endpoint: mean survival time, dose: 100.0 mg/kg/injection, schedule: Q01DX001 (ip), vehicle: carboxymethylcellulose (CMC)) 91 % of control; (endpoint: mean survival time, dose: 200.0 mg/kg/injection, schedule: Q01DX001 (ip), vehicle: carboxymethylcellulose (CMC)) 91 % of control.
Regarding `CC(C)=CCC/C(C)=C\C(N)=O`, the T/C was 106 % of control under setting [10], 92 % of control under setting [11] and 111 % of control under setting [12].
On to `Cc1cc(N)c(S)cc1C`, for which the T/C reads like this: (endpoint: mean survival time, dose: 12.5 mg/kg/injection, schedule: Q04DX002 (ip), vehicle: saline with Tween-80) 108 % of control; (endpoint: mean survival time, dose: 25.0 mg/kg/injection, schedule: Q04DX002 (ip), vehicle: saline with Tween-80) 90 % of control; (endpoint: mean survival time, dose: 50.0 mg/kg/injection, schedule: Q01DX001 (ip), vehicle: saline) 94 % of control; (endpoint: mean survival time, dose: 50.0 mg/kg/injection, schedule: Q04DX002 (ip), vehicle: saline with Tween-80) 101 % of control; under setting [10], 91 % of control.
Take `N#Cc1c(CSC(=N)N)sc2ccccc12`: the T/C runs as follows: under setting [1], 102 % of control; under setting [15], 105 % of control; under setting [2], 101 % of control; under setting [16], 101 % of control; under setting [3], 96 % of control; (endpoint: mean survival time, dose: 100.0 mg/kg/injection, schedule: Q01DX009 (ip), vehicle: Klucel (hydroxypropylcellulose) (HPC)) 100 % of control. Moreover, the T/C under setting [17] was 98 % of control.
On to `Cc1c(Cl)cccc1NC(=S)NC(=O)c1ccccc1`, for which the T/C was 110 % of control under setting [18], 100 % of control under setting [13] and 89 % of control under setting [19].
In the case of `CCCC[N+](C)(CCCC)CC(O)c1cc(-c2ccc(Cl)cc2)nc2c(Cl)cc(Cl)cc12` (stereo unspecified), for the setting “endpoint: mean survival time, dose: 12.5 mg/kg/injection, schedule: Q04DX003 (ip), vehicle: saline”, the T/C was 102 % of control.
For the compound `COC(=O)CCC(C)C1CCC2(C)C3=C(C(=O)CC12C)C1(C)CCC(O)C(C)(C)C1=C(O)C3` (stereo unspecified), the T/C under setting [7] was 91 % of control, the T/C under setting [8] is 93 % of control and the T/C under setting [9] is 91 % of control.
With `Cc1ccc(C2NC(=S)N3C(c4ccc(C)cc4)NC(=S)N23)cc1` (stereo unspecified), the T/C (endpoint: mean survival time, dose: 100.0 mg/kg/injection, schedule: Q01DX009 (ip), vehicle: gum acacia) was 105 % of control; the T/C (endpoint: mean survival time, dose: 100.0 mg/kg/injection, schedule: Q04DX003 (ip), vehicle: gum acacia) was 95 % of control; the T/C (endpoint: mean survival time, dose: 200.0 mg/kg/injection, schedule: Q01DX009 (ip), vehicle: gum acacia) was 100 % of control; the T/C (endpoint: mean survival time, dose: 200.0 mg/kg/injection, schedule: Q04DX003 (ip), vehicle: gum acacia) was 90 % of control; the T/C (endpoint: mean survival time, dose: 400.0 mg/kg/injection, schedule: Q01DX009 (ip), vehicle: gum acacia) is 91 % of control; the T/C (endpoint: mean survival time, dose: 400.0 mg/kg/injection, schedule: Q04DX003 (ip), vehicle: gum acacia) is 95 % of control.
Take `CC(Cc1ccccc1)NC(=O)NCCCl` (stereo unspecified): the T/C reads like this: (endpoint: mean survival time, dose: 12.5 mg/kg/injection, schedule: Q01DX009 (ip), vehicle: Klucel (hydroxypropylcellulose) (HPC)) 101 % of control; under setting [15], 101 % of control; under setting [16], 90 % of control; (endpoint: mean survival time, dose: 100.0 mg/kg/injection, schedule: Q01DX001 (ip), vehicle: Klucel (hydroxypropylcellulose) (HPC)) 92 % of control; under setting [17], 106 % of control; (endpoint: mean survival time, dose: 200.0 mg/kg/injection, schedule: Q01DX001 (ip), vehicle: Klucel (hydroxypropylcellulose) (HPC)) 90 % of control. Besides, the T/C is 117 % of control (endpoint: mean survival time, dose: 200.0 mg/kg/injection, schedule: Q04DX003 (ip), vehicle: Klucel (hydroxypropylcellulose) (HPC)) and 94 % of control (endpoint: mean survival time, dose: 400.0 mg/kg/injection, schedule: Q01DX001 (ip), vehicle: Klucel (hydroxypropylcellulose) (HPC)).
For the compound `C/C(=C\Br)CBr`, for the setting “endpoint: mean survival time, dose: 100.0 mg/kg/injection, schedule: Q01DX009 (ip), vehicle: acetone”, the T/C was 97 % of control.
In the case of `COc1ccc(COC(=O)Nc2cccc(Cl)c2C)cc1`, the T/C was 90 % of control (endpoint: mean survival time, dose: 100.0 mg/kg/injection, schedule: Q01DX001 (ip), vehicle: saline with Tween-80); 97 % of control and 98 % of control under setting [14]; 95 % of control and 104 % of control under setting [18]; 93 % of control under setting [4]; 92 % of control (endpoint: mean survival time, dose: 200.0 mg/kg/injection, schedule: Q01DX001 (ip), vehicle: saline with Tween-80); 97 % of control and 89 % of control (endpoint: mean survival time, dose: 200.0 mg/kg/injection, schedule: Q01DX009 (ip), vehicle: saline with Tween-80). The T/C under setting [13] is 101 % of control and 87 % of control; the T/C under setting [5] was 93 % of control; the T/C (endpoint: mean survival time, dose: 400.0 mg/kg/injection, schedule: Q01DX001 (ip), vehicle: saline with Tween-80) was 87 % of control; the T/C (endpoint: mean survival time, dose: 400.0 mg/kg/injection, schedule: Q01DX009 (ip), vehicle: saline with Tween-80) was 93 % of control; the T/C under setting [19] was 96 % of control and 101 % of control; the T/C under setting [6] is 96 % of control.

(Values after PubChem BioAssay AID248 (DTP/NCI, 2004).)
